Patent publication US20230263822A1, “MODULATION OF FACTOR 11 EXPRESSION” (Ionis Pharmaceuticals, Inc., priority 2008, published 2023)
Strand notation (5' to 3'): a small letter for the sugar, then the base; units joined by * are phosphorothioate-linked, units joined directly phosphodiester-linked; [ ] holds rarer units or linkages, { } end groups; capitals alone tell only the bases. e = 2'-O-(2-methoxyethyl) (MOE); [5mC] = 5-methylcytosine; d = 2'-deoxy (DNA)

System: human Factor 11 mRNA
Assay: Antisense inhibition of human Factor 11 in HepG2 cells, lipofectin, 75 nM (Example 1)
Format: cell-based
Details: 75 nM antisense oligonucleotide, ~24 h, relative to untreated control cells
Method: Antisense oligonucleotides targeted to a Factor 11 nucleic acid were tested for their effects on Factor 11 mRNA in vitro. Cultured HepG2 cells at a density of 10,000 cells per well were transfected using lipofectin reagent with 75 nM antisense oligonucleotide. After a treatment period of approximately 24 hours, RNA was isolated from the cells and Factor 11 mRNA levels were measured by quantitative real time PCR. Factor 11 mRNA levels were adjusted according to total RNA content, as measured by RIBOGREEN. Results are presented as percent inhibition of Factor 11, relative to untreated control cells.
The chimeric antisense oligonucleotides in Tables 1 and 2 were designed as 5-10-5 MOE gapmers. The gapmers are 20 nucleotides in length, wherein the central gap segment is comprised of 10 2′-deoxynucleotides and is flanked on both sides (in the 5′ and 3′ directions) by wings comprising 5 nucleotides each. Each nucleotide in the 5′ wing segment and each nucleotide in the 3′ wing segment has a 2′-MOE modification. The internucleoside linkages throughout each gapmer are phosphorothioate (P=S) linkages. All cytidine residues throughout each gapmer are 5-methylcytidines. “Target start site” indicates the 5′-most nucleotide to which the gapmer is targeted. “Target stop site” indicates the 3′-most nucleotide to which the gapmer is targeted. Each gapmer listed in Table 1 is targeted to SEQ TD NO: 1 (GENBANK Accession No. NM_000128.3) and each gapmer listed in Table 2 is targeted to SEQ TD NO: 2 (GENBANK Accession No. NT_022792.17, truncated from 19598000 to 19624000).

[1] = gapmers targeted to SEQ ID NO: 1
[2] = gapmers targeted to SEQ ID NO: 2

| Substance | % inhibition [1] | % inhibition [2] |
| --- | --- | --- |
| 412190 (antisense eA*eG*eT*eA*eT*dG*dT*d[5mC]*dA*dG*dA*dA*dA*dT*dA*eT*eA*e[5mC]*e[5mC]*eT) [compound 412190] | 24% |  |
| 412193 (antisense eT*eG*eT*eG*eT*dA*dG*dG*dA*dA*dA*dT*dG*dG*dT*e[5mC]*eA*e[5mC]*eT*eT) [compound 412193] | 38% |  |
| 413477 (antisense eA*e[5mC]*eT*eG*eA*dA*dA*d[5mC]*d[5mC]*dA*dG*dA*dA*dA*dG*eA*eG*e[5mC]*eT*eT) [compound 413477] | 54% |  |
| 413483 (antisense eA*eA*e[5mC]*eT*eG*dG*d[5mC]*dA*dG*d[5mC]*dG*dG*dA*d[5mC]*dG*eG*e[5mC]*eA*eT*eT) [compound 413483] | 78% |  |
| 413484 (antisense e[5mC]*e[5mC]*eT*eT*eA*dA*dT*dG*dT*dG*dT*dA*dT*d[5mC]*d[5mC]*eA*eG*eA*eG*eA) [compound 413484] | 74% |  |
| 412254 (antisense eT*eA*eT*e[5mC]*eT*dG*d[5mC]*d[5mC]*dT*dA*dT*dA*dT*dA*dG*eT*eA*eA*eT*e[5mC]) [compound 412254] | 16% |  |
| 412200 (antisense eA*eA*eG*eA*eA*dT*dA*d[5mC]*d[5mC]*d[5mC]*dA*dG*dA*dA*dA*eT*e[5mC]*eG*e[5mC]*eT) [compound 412200] | 59% |  |
| 412219 (antisense eG*eG*e[5mC]*eA*eG*dA*dA*d[5mC]*dA*d[5mC]*dT*dG*dG*dG*dA*eT*eG*e[5mC]*eT*eG) [compound 412219] | 56% |  |
| 413492 (antisense eA*eG*eA*e[5mC]*eA*d[5mC]*dG*d[5mC]*dA*dA*dA*dA*dT*d[5mC]*dT*eT*eA*eG*eG*eT) [compound 413492] | 68% |  |
| 413495 (antisense eT*eT*eG*eG*e[5mC]*dT*dT*dT*d[5mC]*dT*dG*dG*dA*dG*dA*eG*eT*eA*eT*eT) [compound 413495] | 58% |  |
| 413485 (antisense eT*eG*eG*eT*eG*dG*dT*dA*d[5mC]*dA*d[5mC]*dT*d[5mC]*dA*dT*eT*eA*eT*e[5mC]*e[5mC]) [compound 413485] | 68% |  |
| 413499 (antisense eA*eT*e[5mC]*eA*eT*dT*dT*dT*dT*d[5mC]*dA*dG*dG*dA*dA*eA*eG*eT*eG*eT) [compound 413499] | 52% |  |
| 412242 (antisense eA*eA*e[5mC]*eA*eA*dG*dG*d[5mC]*dA*dA*dT*dA*dT*d[5mC]*dA*eT*eA*e[5mC]*e[5mC]*e[5mC]) [compound 412242] | 49% |  |
| 412259 (antisense eT*eT*eT*eT*e[5mC]*dA*dG*dG*dA*dA*dA*dG*dT*dG*dT*eA*eT*e[5mC]*eT*eT) [compound 412259] | 37% |  |
| 413475 (antisense eG*e[5mC]*e[5mC]*eA*eT*dT*d[5mC]*d[5mC]*dT*dG*dG*dG*dA*dA*dA*eA*eG*eA*eA*eG) [compound 413475] | 80% |  |
| 412252 (antisense eT*eT*eA*eT*eG*dG*dT*dA*dA*dT*dT*d[5mC]*dT*dT*dG*eG*eA*e[5mC]*eT*e[5mC]) [compound 412252] | 39% |  |
| 413519 (antisense eA*eT*eG*eG*eA*dG*dA*d[5mC]*dA*dT*dT*d[5mC]*dA*dT*dT*eT*e[5mC]*e[5mC]*eA*e[5mC]) [compound 413519] |  | 59% |
| 412256 (antisense eA*eA*e[5mC]*eA*eA*dA*dT*d[5mC]*dT*dA*dT*dT*dT*dA*dT*eG*eG*eT*eG*eG) [compound 412256] | 39% |  |
| 413464 (antisense eG*eT*eG*eA*eG*d[5mC]*dA*dT*dT*dG*d[5mC]*dT*dT*dG*dA*eA*eA*eG*eA*eA) [compound 413464] | 42% |  |
| 412220 (antisense eT*eG*eG*eT*eA*dA*dA*dA*dT*dG*dA*dA*dG*dA*dA*eT*eG*eG*e[5mC]*eA) [compound 412220] | 58% |  |
| 412264 (antisense e[5mC]*eA*e[5mC]*eA*e[5mC]*dT*dT*dG*dA*dT*dG*dA*dA*dT*dT*eG*eT*eA*eT*eA) [compound 412264] | 27% |  |
| 413494 (antisense eG*eT*eG*eG*eT*dT*dT*d[5mC]*d[5mC]*dA*dG*dT*dT*dT*d[5mC]*eA*eA*e[5mC]*eA*eA) [compound 413494] | 70% |  |
| 412241 (antisense eT*eA*eT*eT*eA*dT*dT*dT*d[5mC]*dT*dT*dG*dA*dA*d[5mC]*e[5mC]*e[5mC]*e[5mC]*eA*eA) [compound 412241] | 41% |  |

| Substance | % inhibition [1] | % inhibition [2] |
| --- | --- | --- |
| 413528 (antisense eT*eT*eA*eA*eG*dT*dT*dA*d[5mC]*dA*dT*dT*dG*dT*dA*eG*eA*e[5mC]*e[5mC]*eA) [compound 413528] |  | 48% |
| 412240 (antisense eT*eG*eA*eA*e[5mC]*d[5mC]*d[5mC]*d[5mC]*dA*dA*dA*dG*dA*dA*dA*eG*eA*eT*eG*eT) [compound 412240] | 32% |  |
| 412202 (antisense eT*eT*eG*eG*eT*dG*dT*dG*dA*dG*d[5mC]*dA*dT*dT*dG*e[5mC]*eT*eT*eG*eA) [compound 412202] | 65% |  |
| 413488 (antisense eA*e[5mC]*eA*eG*eG*dT*dG*dT*d[5mC]*dT*d[5mC]*dT*dG*dA*dG*eT*eG*eG*eG*eT) [compound 413488] | 49% |  |
| 412196 (antisense eT*eG*eA*eT*eA*dT*dA*dA*dG*dA*dA*dA*dA*dT*d[5mC]*eA*eT*e[5mC]*e[5mC]*eT) [compound 412196] | 25% |  |
| 413523 (antisense eT*e[5mC]*eA*eG*eT*dT*dT*dA*d[5mC]*d[5mC]*dT*dG*dG*dG*dA*eT*eG*e[5mC]*eT*eG) [compound 413523] |  | 61% |
| 412216 (antisense eA*eA*eA*eG*eA*dT*dT*dT*d[5mC]*dT*dT*dT*dG*dA*dG*eA*eT*eT*e[5mC]*eT) [compound 412216] | 43% |  |
| 413491 (antisense eT*eT*eA*eG*eG*dT*dG*dA*d[5mC]*dT*d[5mC]*dT*dA*d[5mC]*d[5mC]*e[5mC]*e[5mC]*eA*eT*eA) [compound 413491] | 73% |  |
| 413511 (antisense eT*eG*e[5mC]*e[5mC]*eA*dA*dT*dT*dT*dA*dA*dA*dA*dG*dT*eG*eT*eA*eG*e[5mC]) [compound 413511] |  | 43% |
| 412234 (antisense eG*eT*eT*eT*e[5mC]*d[5mC]*dA*dA*dT*dG*dA*dT*dG*dG*dA*eG*e[5mC]*e[5mC]*eT*e[5mC]) [compound 412234] | 60% |  |
| 413515 (antisense eG*eG*eT*eA*eT*d[5mC]*d[5mC]*dT*dG*dA*dG*dT*dG*dA*dG*eA*eT*e[5mC]*eT*eA) [compound 413515] |  | 36% |
| 412189 (antisense eA*eA*eA*eT*eA*dT*dA*d[5mC]*d[5mC]*dT*dT*dG*dA*dG*dA*eG*eA*eA*eT*eT) [compound 412189] | 8% |  |
| 412261 (antisense eT*e[5mC]*e[5mC]*e[5mC]*eA*dA*dG*dA*dT*dA*dT*dT*dT*dT*dA*eA*eA*eT*eA*eA) [compound 412261] | 3% |  |
| 412226 (antisense eT*eT*eG*eA*eA*dG*dA*dA*dA*dG*d[5mC]*dT*dT*dT*dA*eA*eG*eT*eA*eA) [compound 412226] | 17% |  |
| 412239 (antisense eT*eT*e[5mC]*eA*eG*dA*dT*dT*dG*dA*dT*dT*dT*dA*dA*eA*eA*eT*eG*e[5mC]) [compound 412239] | 43% |  |
| 413461 (antisense eG*eT*e[5mC]*eA*eG*dA*dA*dA*dT*dA*dT*dA*d[5mC]*d[5mC]*dT*eT*eG*eA*eG*eA) [compound 413461] | 39% |  |
| 413522 (antisense eT*e[5mC]*eA*eA*eG*dA*dG*dT*d[5mC]*dT*dT*d[5mC]*dA*dT*dG*e[5mC]*eT*eA*e[5mC]*e[5mC]) [compound 413522] |  | 42% |
| 412237 (antisense eT*eG*eA*e[5mC]*eT*d[5mC]*dT*dA*d[5mC]*d[5mC]*d[5mC]*d[5mC]*dA*dT*dA*eG*eA*eA*eA*e[5mC]) [compound 412237] | 48% |  |
| 413521 (antisense e[5mC]*eT*eG*eG*eG*dA*dA*dG*dG*dT*dG*dA*dA*dT*dT*eT*eT*eT*eA*eG) [compound 413521] |  | 62% |
| 413501 (antisense eT*eT*eA*eG*eT*dT*dT*dA*d[5mC]*dT*dG*dA*d[5mC]*dA*d[5mC]*eT*eA*eA*eG*eA) [compound 413501] |  | 23% |
| 412208 (antisense eA*eG*eA*e[5mC]*eA*dA*dA*dT*dG*dT*dT*dA*d[5mC]*dG*dA*eT*eG*e[5mC]*eT*e[5mC]) [compound 412208] | 73% |  |
| 413498 (antisense eG*e[5mC]*eA*eG*eA*dG*dT*dG*dT*dA*dG*dA*dT*dT*d[5mC]*e[5mC]*eT*eG*e[5mC]*eA) [compound 413498] | 60% |  |
| 412201 (antisense e[5mC]*eA*eT*eT*eG*d[5mC]*dT*dT*dG*dA*dA*dA*dG*dA*dA*eT*eA*e[5mC]*e[5mC]*e[5mC]) [compound 412201] | 66% |  |
